Measured values from ChEMBL document CHEMBL1201862, “PubChem BioAssay data set” (2004).
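A five-concentration, 48-hour dose response in 96-well plates underlies each endpoint, interpolated linearly between surrounding concentrations. The concentration for 50% growth inhibition is given as GI50.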 Activity calls are given as the source filed them. Rule as the data show it: active = GI50 up to about 1.1 µM and inactive = higher.

Experiments:
Experiment in all cases: NCI-60 cell line screen, 48 h
786-0 = test system: 786-0
A498 = test system: A498
A549 = test system: A549
ACHN = test system: ACHN
BT-549 = test system: BT-549
CAKI-1 = test system: CAKI-1
CCRF-CEM = test system: CCRF-CEM
COLO 205 = test system: COLO 205
DU-145 = test system: DU-145
EKVX = test system: EKVX
HCC 2998 = test system: HCC 2998
HCT-116 = test system: HCT-116
HCT-15 = test system: HCT-15
HL-60 = test system: HL-60
HOP-62 = test system: HOP-62
HOP-92 = test system: HOP-92
HT-29 = test system: HT-29
Hs-578T = test system: Hs-578T
IGROV-1 = test system: IGROV-1
K562 = test system: K562
KM12 = test system: KM12
LOX IMVI = test system: LOX IMVI
M14 = test system: M14
MCF7 = test system: MCF7
MDA-MB-231 = test system: MDA-MB-231
MDA-MB-435 = test system: MDA-MB-435
MDA-N = test system: MDA-N
MOLT-4 = test system: MOLT-4
Malme-3M = test system: Malme-3M
NCI-H226 = test system: NCI-H226
NCI-H23 = test system: NCI-H23
NCI-H460 = test system: NCI-H460
NCI-H522 = test system: NCI-H522
NCI/ADR-RES = test system: NCI/ADR-RES
OVCAR-3 = test system: OVCAR-3
OVCAR-4 = test system: OVCAR-4
OVCAR-5 = test system: OVCAR-5
OVCAR-8 = test system: OVCAR-8
PC-3 = test system: PC-3
RPMI-8226 = test system: RPMI-8226
RXF 393 = test system: RXF 393
SF-268 = test system: SF-268
SF-295 = test system: SF-295
SF-539 = test system: SF-539
SK-MEL-28 = test system: SK-MEL-28
SK-MEL-2 = test system: SK-MEL-2
SK-MEL-5 = test system: SK-MEL-5
SK-OV-3 = test system: SK-OV-3
SN12C = test system: SN12C
SNB-19 = test system: SNB-19
SNB-75 = test system: SNB-75
SR = test system: SR
SW-620 = test system: SW-620
T47D = test system: T47D
TK-10 = test system: TK-10
U-251 = test system: U-251
UACC-257 = test system: UACC-257
UACC-62 = test system: UACC-62
UO-31 = test system: UO-31

## O=C(CC(c1ccccc1)c1c(O)c2ccccc2oc1=O)c1ccccc1 (centres undefined)
786-0
  GI50: > 100 µM (inactive)
A498
  GI50: > 61.9 µM (inactive)
A549
  GI50: 54.6 µM (inactive)
ACHN
  GI50: 98.4 µM (inactive)
BT-549
  GI50: 49.5 µM (inactive)
CAKI-1
  GI50: 21.2 µM (inactive)
CCRF-CEM
  GI50: 59.7 µM (inactive)
COLO 205
  GI50: 59.7 µM (inactive)
DU-145
  GI50: > 89.1 µM (inactive)
EKVX
  GI50: 72.1 µM (inactive)
HCC 2998
  GI50: 93.3 µM (inactive)
HCT-116
  GI50: > 84.5 µM (inactive)
HCT-15
  GI50: 78.9 µM
HL-60
  GI50: 90.2 µM (inactive)
HOP-62
  GI50: > 100 µM (inactive)
HOP-92
  GI50: > 44.3 µM (inactive)
HT-29
  GI50: > 94.8 µM (inactive)
Hs-578T
  GI50: > 69.5 µM (inactive)
IGROV-1
  GI50: > 100 µM (inactive)
K562
  GI50: 61.5 µM (inactive)
KM12
  GI50: > 100 µM (inactive)
LOX IMVI
  GI50: > 67.8 µM (inactive)
M14
  GI50: > 100 µM (inactive)
MCF7
  GI50: > 85.9 µM (inactive)
MDA-MB-231
  GI50: > 100 µM (inactive)
MDA-MB-435
  GI50: 72.6 µM (inactive)
MDA-N
  GI50: > 84.5 µM (inactive)
MOLT-4
  GI50: 84.9 µM (inactive)
Malme-3M
  GI50: > 84.9 µM (inactive)
NCI-H226
  GI50: 71.9 µM (inactive)
NCI-H23
  GI50: 53.3 µM (inactive)
NCI-H460
  GI50: 65.5 µM (inactive)
NCI-H522
  GI50: 47 µM (inactive)
NCI/ADR-RES
  GI50: 54.2 µM (inactive)
OVCAR-3
  GI50: 30.4 µM (inactive)
OVCAR-4
  GI50: 56.1 µM (inactive)
OVCAR-5
  GI50: > 100 µM (inactive)
OVCAR-8
  GI50: > 100 µM (inactive)
PC-3
  GI50: > 93.3 µM (inactive)
RPMI-8226
  GI50: 56.1 µM (inactive)
RXF 393
  GI50: > 53.1 µM (inactive)
SF-268
  GI50: > 100 µM (inactive)
SF-295
  GI50: > 76.7 µM (inactive)
SF-539
  GI50: > 100 µM (inactive)
SK-MEL-28
  GI50: 72.1 µM (inactive)
SK-MEL-2
  GI50: > 92.3 µM (inactive)
SK-MEL-5
  GI50: > 100 µM (inactive)
SK-OV-3
  GI50: 67.9 µM (inactive)
SN12C
  GI50: > 87.9 µM (inactive)
SNB-19
  GI50: > 95.7 µM (inactive)
SNB-75
  GI50: > 47.5 µM (inactive)
SR
  GI50: 44.6 µM (inactive)
SW-620
  GI50: > 100 µM (inactive)
T47D
  GI50: 58.1 µM (inactive)
TK-10
  GI50: > 100 µM (inactive)
U-251
  GI50: > 100 µM (inactive)
UACC-257
  GI50: > 83.9 µM (inactive)
UACC-62
  GI50: 38.4 µM (inactive)
UO-31
  GI50: 98.4 µM (inactive)
